The test system of experiment [1] is Proteus mirabilis. Description: Antimicrobial activity against Proteus mirabilis isolates by microdilution method. Type of experiment: functional, organism-based. A general note: Broth dilution looks for growth in wells or tubes with falling amounts of substance.
In experiment [2] the test system is SF-268. Description: Cytotoxicity against human SF268 cells after 48 hrs by SRB assay. The class given is functional. The following applies: SF-268, 48 h. In general terms: The SRB assay estimates cell density from bound dye.
The subject of experiment [3] is MCF7. Description: Cytotoxicity against human MCF7 cells at <40 uM after 48 hrs by SRB assay. The class given is functional, cell-based.
Experiment [4] concerns OVCAR-3. Description: Cytotoxicity against human OVCAR-3 cells after 48 hrs by SRB assay. Type of experiment: functional. Conditions: OVCAR-3, 48 h.
In experiment [5] the test system is NCI-H460. Description: Cytotoxicity against human H460 cells at <40 uM after 48 hrs by SRB assay. Type of experiment: functional, cell-based.
Experiment [6] concerns Staphylococcus aureus. Description: Antimicrobial activity against Staphylococcus aureus ATCC 6538 by microdilution method. The class given is functional.
Experiment [7] deals with DLD-1. Description: Cytotoxicity against human DLD1 cells at <40 uM after 48 hrs by SRB assay. The class given is functional, cell-based.
In experiment [8] the test system is SF-268. Description: Cytotoxicity against human SF268 cells at <40 uM after 48 hrs by SRB assay. The class given is functional, cell-based.
The test system of experiment [9] is Escherichia coli. Description: Antimicrobial activity against Escherichia coli ATCC 35218 by microdilution method. Type of experiment: functional, organism-based.
Experiment [10] deals with OVCAR-3. Description: Cytotoxicity against human OVCAR-3 cells at <40 uM after 48 hrs by SRB assay. The class given is functional, cell-based.
Experiment [11] relates to Pseudomonas aeruginosa. Description: Antimicrobial activity against Pseudomonas aeruginosa ATCC 27853 by microdilution method. Type of experiment: functional, organism-based.
Experiment [12] deals with Bacillus cereus. Description: Antimicrobial activity against Bacillus cereus isolates by microdilution method. The class given is functional.
Experiment [13] has as its system Micrococcus luteus. Description: Antimicrobial activity against Micrococcus flavus ATCC 10240 by microdilution method. Type of experiment: functional.
For experiment [14], the system named is NCI-H460. Description: Cytotoxicity against human H460 cells after 48 hrs by SRB assay. The class given is functional. The following applies: NCI-H460, 48 h.
In experiment [15] the test system is DLD-1. Description: Cytotoxicity against human DLD1 cells after 48 hrs by SRB assay. Type of experiment: functional. Conditions: DLD-1, 48 h.
Experiment [16] deals with MCF7. Description: Cytotoxicity against human MCF7 cells after 48 hrs by SRB assay. The class given is functional. The following applies: MCF7, 48 h.
The mark [17] stands for this setting: read-out: LC50 (the source's name).

This note sets out measurements from ChEMBL document CHEMBL1158815, “Sesquiterpene lactones from Centaurea spinosa and their antibacterial and cytotoxic activities” (2005).

In brackets after ≈: the same amount, converted by molar mass. Activity calls are given as the source filed them. No cut-off for these calls is given here.

The term GI50 denotes the concentration giving 50% growth inhibition. A lower GI50 goes with more potent growth inhibition. As usually defined, the MIC is the least concentration at which growth counts as inhibited. A low value points to a more susceptible organism. As to `C=C[C@]1(C)C[C@H](OC(=O)C(=C)[C@@H](O)CO)[C@@H](C(=C)C(=O)OC)[C@H](O)C1C(=C)CO` (stereo partly drawn), the result in [1], in experiment [3], in [5], in [7], in [8] and in [9] was inactive. The result in [10] and in [11] was inactive. Also, the GI50 was found to be 37.6 µM in experiment [2] and 31.9 µM in experiment [4]. This molecule registered an MIC in experiment [6] of 5 µg/mL (≈ 12.2 µM).
Consider `CN[C@@H]1[C@H](O[C@H]2[C@H](O[C@H]3[C@H](O)[C@@H](O)[C@H](N=C(N)N)[C@@H](O)[C@@H]3N=C(N)N)O[C@@H](C)[C@]2(O)C=O)O[C@@H](CO)[C@H](O)[C@H]1O` [STREPTOMYCIN], for which the MIC in experiment [12] amounted to 0.1 µg/mL (≈ 0.172 µM); in experiment [6], 5 µg/mL (≈ 8.6 µM); in [13], 0.1 µg/mL (≈ 0.172 µM).
On to `C=C1C(=O)O[C@H]2[C@H]1[C@@H](OC(=O)C(=C)[C@@H](O)CO)C[C@]1(C)[C@@H]2[C@@H](C=O)CC[C@H]1O` [MALACITANOLIDE], for which the outcome in experiment [1], in experiment [9] and in [11] was inactive. The MIC in experiment [6] and in experiment [13] was 5 µg/mL (≈ 12.7 µM) in each case.
On to `C=C1C(=O)O[C@@H]2[C@H]1[C@@H](OC(=O)/C(=C/COC(C)=O)CO)C[C@]1(C)[C@@H]2[C@@H](C=O)CC[C@H]1O`, for which the result in [1], in [9] and in experiment [11] was inactive. For the same molecule, the MIC in experiment [6] worked out at 3.5 µg/mL (≈ 8.02 µM); in experiment [13] it was 0.437 µg/mL (≈ 1 µM).
Consider `C=C1C(=O)O[C@@H]2/C=C(\CO)CC/C=C(\C)C[C@H](OC(=O)C(=C)[C@@H](O)COC(C)=O)[C@@H]12`, for which the result in experiment [1], in experiment [9] and in [11] was inactive. The MIC in experiment [12] was found to be 1.25 µg/mL (≈ 2.97 µM); in experiment [6], 5 µg/mL (≈ 11.9 µM); in experiment [13], 5 µg/mL (≈ 11.9 µM).
Usually TGI stands for the concentration giving total growth inhibition. For the molecule `CC[C@]1(O)C[C@@H]2CN(CCc3c([nH]c4ccccc34)[C@@](C(=O)OC)(c3cc4c(cc3OC)N(C)[C@H]3[C@@](O)(C(=O)OC)[C@H](OC(C)=O)[C@]5(CC)C=CCN6CC[C@]43[C@@H]65)C2)C1` [VINBLASTINE], the GI50 in experiment [14], in experiment [15], in [2], in [4] and in [16] was less than 0.01 µM in each case. Moreover, the TGI in experiment [14] was 0.35 µM; in [15] it was 2.44 µM; in [4], less than 0.01 µM; in experiment [16] it was 1.6 µM. The CC50 stood at 2.48 µM in experiment [15] (setting [17]) and 0.92 µM in experiment [4] (setting [17]).
`C=C1C(=O)O[C@@H]2/C=C(\CO)CC/C=C(\C)C[C@H](OC(=O)/C(=C/COC(C)=O)CO)[C@@H]12`: the result in experiment [1], in experiment [9] and in [11] was inactive. In addition, the results for the minimal inhibitory concentration (MIC) in experiment [12], in experiment [6] and in experiment [13] were 1.25 µg/mL (≈ 2.97 µM), 5 µg/mL (≈ 11.9 µM) and 5 µg/mL (≈ 11.9 µM), respectively.
In the case of `C=C1C(=O)O[C@H]2[C@H]1[C@@H](OC(=O)C(=C)[C@@H](O)COC(C)=O)C[C@]1(C)[C@@H]2[C@@H](C=O)CC[C@H]1O`, the outcome in [1], in [9] and in experiment [11] was inactive. Also, the MIC in experiment [6] and in experiment [13] was 5 µg/mL (≈ 11.5 µM) each time.
`C=C[C@]1(C)C[C@H](OC(=O)C(=C)[C@@H](O)CO)[C@H]2C(=C)C(=O)O[C@@H]2[C@H]1C(=C)CO`: the outcome in experiment [1], in experiment [3], in experiment [8], in experiment [9] and in [11] was inactive. Besides, the MIC in experiment [12] amounted to 1.25 µg/mL (≈ 3.3 µM); in [6], 5 µg/mL (≈ 13.2 µM); in experiment [13] it was 5 µg/mL (≈ 13.2 µM). In addition, in experiment [2], the GI50 came out at 29.3 µM.
Take `C=C1C(=O)O[C@@H]2/C=C(\CO)CC/C=C(\C)C[C@H](OC(=O)C(=C)[C@H](O)CO)[C@@H]12` [CNICIN]: the result in [1], in [3], in experiment [5], in experiment [7], in experiment [8] and in experiment [9] was inactive. The result in [10] and in [11] was inactive. Further, the minimum inhibitory concentration (MIC) is 1.25 µg/mL (≈ 3.3 µM) in experiment [12] and 5 µg/mL (≈ 13.2 µM) in experiment [13]. Also, the GI50 in [4] came out at 37.4 µM; in experiment [16], 37.8 µM.
Take `C=C1C(=O)O[C@H]2[C@H]1[C@@H](OC(=O)C(=C)[C@@H](O)CO)C[C@]1(C)[C@@H]2[C@H](C=O)CC[C@H]1O`: the result in [1], in [3], in experiment [5], in [7], in experiment [8] and in [9] was inactive. Moreover, the outcome in experiment [10] and in experiment [11] was inactive. Also, the MIC in experiment [12] came to 5 µg/mL (≈ 12.7 µM); in [6], 5 µg/mL (≈ 12.7 µM); in experiment [13], 0.625 µg/mL (≈ 1.58 µM). The figures for the 50% growth inhibitory concentration (GI50) in experiment [14], in [4] and in experiment [16] were 32.4 µM, 36.4 µM and 31.7 µM, respectively.
For the molecule `C=C[C@]1(C)C[C@H](OC(=O)C(=C)[C@@H](O)CO)[C@H]2C(=C)C(=O)O[C@@H]2[C@H]1C(=C)C=O`, the result in experiment [1], in [3], in experiment [5], in experiment [7], in experiment [8] and in experiment [9] was inactive. Further, the outcome in [10] and in experiment [11] was inactive. For the same molecule, the MIC in experiment [12] came out at 1.25 µg/mL (≈ 3.32 µM); in [6] it was 5 µg/mL (≈ 13.3 µM); in experiment [13], 0.625 µg/mL (≈ 1.66 µM). The 50% growth inhibitory concentration (GI50) in experiment [14] turned out to be 37 µM; in [2], 7.7 µM; in experiment [4], 4.7 µM; in [16], 10 µM. In experiment [2], this molecule yielded a TGI of 38 µM.
